Assays:
Rat NHE3 = biological target: T1, Rat NHE3 (Rattus norvegicus, UniProt P26433); test: Cell-based NHE3 activity under prompt conditions (OK cells, BCECF pH recovery), rat NHE3; conditions: prompt conditions
T1 construct: expressed in transfected cells; host or cells: Opossum kidney (OK) cells (ATCC), electroporation
Outline: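 OK cells electroporated with rat or human NHE3 were loaded with 5 μM BCECF-AM in NH4Cl-HEPES (pH 7.4) for 30 min at room temperature, then acid-loaded 10 min in Na+-free choline-HEPES.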

Human NHE3 = biological target: T2, Human NHE3 (Homo sapiens, UniProt P48764); test: Cell-based NHE3 activity under prompt conditions (OK cells, BCECF pH recovery), human NHE3; conditions: prompt conditions
T2 construct: expressed in transfected cells; host or cells: Opossum kidney (OK) cells (ATCC), electroporation
T2 sequence (P48764 26-834): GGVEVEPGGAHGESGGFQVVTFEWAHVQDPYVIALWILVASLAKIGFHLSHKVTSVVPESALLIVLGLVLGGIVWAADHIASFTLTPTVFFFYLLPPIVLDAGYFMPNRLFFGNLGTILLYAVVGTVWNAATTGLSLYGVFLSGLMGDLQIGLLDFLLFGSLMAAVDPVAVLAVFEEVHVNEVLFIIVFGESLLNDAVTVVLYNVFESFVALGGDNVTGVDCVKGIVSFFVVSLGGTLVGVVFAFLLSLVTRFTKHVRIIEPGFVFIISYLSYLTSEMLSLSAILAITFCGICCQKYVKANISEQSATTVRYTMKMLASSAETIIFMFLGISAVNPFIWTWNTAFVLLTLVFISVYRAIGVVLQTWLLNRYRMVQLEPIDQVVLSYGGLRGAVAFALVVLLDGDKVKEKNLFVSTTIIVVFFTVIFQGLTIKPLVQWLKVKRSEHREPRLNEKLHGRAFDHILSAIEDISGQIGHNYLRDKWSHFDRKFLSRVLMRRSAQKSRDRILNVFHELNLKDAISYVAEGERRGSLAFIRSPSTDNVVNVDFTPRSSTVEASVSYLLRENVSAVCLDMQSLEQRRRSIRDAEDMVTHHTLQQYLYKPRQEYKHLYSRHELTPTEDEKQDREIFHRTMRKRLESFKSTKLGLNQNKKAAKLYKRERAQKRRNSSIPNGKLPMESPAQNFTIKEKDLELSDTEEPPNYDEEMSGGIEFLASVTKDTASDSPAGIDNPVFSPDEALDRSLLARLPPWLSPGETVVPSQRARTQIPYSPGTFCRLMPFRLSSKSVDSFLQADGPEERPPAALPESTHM
Experimental: Cell-based activity under Prompt Conditions. Rat or human NHE3-mediated Na^+-dependent H antiport was measured using a modification of the pH sensitive dye method originally reported by Paradiso (PNAS USA. 81:7436-7440, 1984). Opossum kidney (OK) cells were obtained from the ATCC and propagated per their instructions. The rat NHE3 gene (GenBank M85300) or the human NHE3 gene (GenBank NM_004174.1) was introduced into OK cells via electroporation, and cells were seeded into 96 well plates and grown overnight. Medium was aspirated from the wells, cells were washed twice with NaCl-HEPES buffer (100 mM NaCl, 50 mM HEPES, 10 mM glucose, 5 mM KCl, 2 mM CaCl2, 1 mM MgCl2, pH 7.4), then incubated for 30 min at room temperature with NH4Cl-HEPES buffer (20 mM NH4Cl, 80 mM NaCl, 50 mM HEPES, 5 mM KCl, 2 mM CaCl2, 1 mM MgCl2, pH 7.4) containing 5 μM bis(acetoxymethyl) 3,3′-(3′,6′-bis(acetoxymethoxy)-5-((acetoxymethoxy)carbonyl)-3-oxo-3H-spiro[isobenzofuran-1,9′-xanthene]-2′,7′-diyl)dipropanoate (BCECF-AM).
Cells were washed twice with Ammonium free, Na^+-free HEPES (100 mM choline, 50 mM HEPES, 10 mM glucose, 5 mM KCl, 2 mM CaCl2, 1 mM MgCl2, pH 7.4) and incubated in the same buffer for 10 minutes at room temperature to lower intracellular pH. […] Initial rates were plotted as the average 2 or more replicates, and pIC50 values were estimated using GraphPad Prism.
Cell-based activity of NHE3 Activity under ‘Prompt’ Conditions. This assay was performed as described in Example 1 (supra).

[1] = tested on: absorption of sodium from the intestinal lumen; test: Inhibition of intestinal sodium absorption: urinary sodium (uNa) 16 h after single oral dose in rats; format: in vivo, rat; conditions: oral gavage, 16 h post-dose
Outline: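 Eight-week-old Sprague-Dawley rats (n=6) given single oral gavage of compound or water vehicle in the late afternoon, then kept in metabolic cages with chow and water ad libitum. Urine collected over 16 h; sodium quantified by ion chromatography and expressed as % of vehicle mean, compared by one-way ANOVA with Dunnett's test.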

[2] = tested on: absorption of sodium from the intestinal lumen; test: Fecal form score (FFS) 16 h after oral dose in rats; format: in vivo, rat; conditions: oral gavage, 16 h post-dose, scale 1-5
Outline: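 Eight-week-old Sprague-Dawley rats (n=6) dosed by oral gavage with compound or water vehicle between 4 and 5 PM, then housed in metabolic cages with food and water ad libitum. At 16 h, fecal form scored 1 (normal pellet) to 5 (liquid streams) by two observers; group mean reported.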

[3] = tested on: phosphorus and calcium levels in the urine of rats; test: Urinary excretion of phosphate and calcium in rats (16 h overnight urine); format: in vivo, rat; conditions: rats, oral gavage, 16 h post-dose

T1 sequence (P26433 29-831): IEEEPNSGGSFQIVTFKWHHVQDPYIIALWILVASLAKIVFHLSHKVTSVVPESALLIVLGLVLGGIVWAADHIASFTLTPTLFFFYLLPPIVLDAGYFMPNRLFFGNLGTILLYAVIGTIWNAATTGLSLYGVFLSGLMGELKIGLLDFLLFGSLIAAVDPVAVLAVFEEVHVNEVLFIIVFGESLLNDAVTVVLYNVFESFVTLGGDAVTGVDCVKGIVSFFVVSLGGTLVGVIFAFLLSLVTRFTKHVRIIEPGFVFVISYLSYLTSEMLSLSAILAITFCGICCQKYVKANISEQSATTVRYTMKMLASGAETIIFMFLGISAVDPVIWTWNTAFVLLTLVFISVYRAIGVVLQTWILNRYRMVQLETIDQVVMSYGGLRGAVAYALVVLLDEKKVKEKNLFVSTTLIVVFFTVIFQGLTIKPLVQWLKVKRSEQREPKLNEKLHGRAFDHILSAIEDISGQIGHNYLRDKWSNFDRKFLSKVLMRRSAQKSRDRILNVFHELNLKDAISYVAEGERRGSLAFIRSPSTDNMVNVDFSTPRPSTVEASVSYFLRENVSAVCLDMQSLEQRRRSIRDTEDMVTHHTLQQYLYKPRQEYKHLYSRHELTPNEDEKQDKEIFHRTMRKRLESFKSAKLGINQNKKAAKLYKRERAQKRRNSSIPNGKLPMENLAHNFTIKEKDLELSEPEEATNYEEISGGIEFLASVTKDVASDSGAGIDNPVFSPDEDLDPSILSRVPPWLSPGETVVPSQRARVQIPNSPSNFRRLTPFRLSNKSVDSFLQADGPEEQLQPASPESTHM

Row | SMILES | Prompt Rat NHE3 pIC50 (Rat NHE3) | Prompt Human NHE3 pIC50 (Human NHE3) | Urine Na % of control ([1]; dose 10 mg/kg) [%] | Fecal Form Score average ([2]; dose 10 mg/kg) | Urine P % of control ([3]; dose 10 mg/kg) [%] | Urine Na % of control ([1]; dose 30 mg/kg) [%] | Fecal Form Score average ([2]; dose 30 mg/kg) | Urine P % of control ([3]; dose 30 mg/kg) [%] | Urine Na % of control ([1]; dose 1 mg/kg) [%] | Urine Na % of control ([1]; dose 3 mg/kg) [%] | Fecal Form Score average ([2]; dose 1 mg/kg) | Fecal Form Score average ([2]; dose 3 mg/kg) | Urine P % of control ([3]; dose 1 mg/kg) [%] | Urine P % of control ([3]; dose 3 mg/kg) [%] | IC50 (Rat NHE3; read-out: Prompt Rat NHE3 pIC50 (converted)) [nM] | IC50 (Human NHE3; read-out: Prompt Human NHE3 pIC50 (converted)) [nM]
1 | CN1Cc2c(Cl)cc(Cl)cc2[C@H](c2cccc(S(=O)(=O)NCCOCCOCCOCCNC(=O)CN(CCN(CC(=O)O)CC(=O)NCCOCCOCCOCCNS(=O)(=O)c3cccc([C@@H]4CN(C)Cc5c(Cl)cc(Cl)cc54)c3)CC(=O)O)c2)C1 [compound 67] | 8.00 | 8.70 | 4 | 2 | 67 |  |  |  |  |  |  |  |  |  |  | 
2 | NCCOCCOCCN1CCN(c2cccc(-c3nc(N=C(N)N)nc4ccc(Cl)cc34)c2)CC1 [compound 16] | 6.70 | 7.80 |  |  |  | 87 | 1 | 123 |  |  |  |  |  |  |  | 
3 | CN(CC(=O)NCCOCCOCCNC(=O)NCCOCCOCCOCCOc1ccc(-c2nc(NC(=N)N)nc3ccc(Cl)cc23)cc1)CC(=O)NCCOCCOCCNC(=O)NCCOCCOCCOCCOc1ccc(-c2nc(NC(=N)N)nc3ccc(Cl)cc23)cc1 [compound 34] | 7.90 | 8.20 | 76 | 1 | 72 |  |  |  |  |  |  |  |  |  |  | 
4 | O=C(NCCCCNC(=O)NCCOCCOCCNC(=O)Nc1cccc(O[C@H]2c3ccccc3C[C@@H]2N2CCCCC2)c1)NCCOCCOCCNC(=O)Nc1cccc(O[C@H]2c3ccccc3C[C@@H]2N2CCCCC2)c1 [compound 126] | <5.00 | 6.55 | 93 | 1 | 94 |  |  |  |  |  |  |  |  |  |  | 
5 | CN1Cc2c(Cl)cc(Cl)cc2[C@H](c2cccc(S(=O)(=O)NCCOCCOCCNC(=O)CCC(CCC(=O)NCCOCCOCCNS(=O)(=O)c3cccc([C@@H]4CN(C)Cc5c(Cl)cc(Cl)cc54)c3)(CCC(=O)NCCOCCOCCNS(=O)(=O)c3cccc([C@@H]4CN(C)Cc5c(Cl)cc(Cl)cc54)c3)NC(=O)COCC(=O)O)c2)C1 [compound 139] | 7.60 | 7.80 |  |  |  |  |  |  | 80 | 27 | 1 | 3 | 63 | 45 |  | 
6 | CN1Cc2c(Cl)cc(Cl)cc2[C@H](c2cccc(S(=O)(=O)NCCOCCOCCOCCNC(=O)CN3CCN(c4nc(N5CCN(CC(=O)NCCOCCOCCOCCNS(=O)(=O)c6cccc([C@@H]7CN(C)Cc8c(Cl)cc(Cl)cc87)c6)CC5)nc(N5CCN(CC(=O)NCCOCCOCCOCCNS(=O)(=O)c6cccc([C@@H]7CN(C)Cc8c(Cl)cc(Cl)cc87)c6)CC5)n4)CC3)c2)C1 [compound 69] | 6.60 | 6.70 | 82 | 1 | 78 |  |  |  |  |  |  |  |  |  |  | 
7 | NCCOCCOCCOc1cccc(-c2nc(N=C(N)N)nc3ccc(Cl)cc23)c1 [compound 10] | 6.65 | 7.50 | 76 | 1 | 80 |  |  |  |  |  |  |  |  |  |  | 
8 | O=C(NCCOCCOCCOCCNS(=O)(=O)c1ccc(OC2c3ccccc3CC2N2CCCCC2)cc1)C(O)C(O)C(=O)NCCOCCOCCOCCNS(=O)(=O)c1ccc(OC2c3ccccc3CC2N2CCCCC2)cc1 (mixture of isomers) [compound 55] |  |  | 85 | 1 | 45 |  |  |  |  |  |  |  |  |  | 20 | 12.6
9 | CN1Cc2c(Cl)cc(Cl)cc2[C@H](c2cccc(S(=O)(=O)NCCOCCOCCNC(=O)NCCCC(CCCNC(=O)NCCOCCOCCNS(=O)(=O)c3cccc([C@@H]4CN(C)Cc5c(Cl)cc(Cl)cc54)c3)(CCCNC(=O)NCCOCCOCCNS(=O)(=O)c3cccc([C@@H]4CN(C)Cc5c(Cl)cc(Cl)cc54)c3)NC(=O)CCC(=O)O)c2)C1 [compound 155] | 7.70 | 7.90 |  |  |  |  |  |  |  | 40 |  | 2 |  | 44 |  | 
10 | O=C(NCCOCCOCCNS(=O)(=O)c1ccc(O[C@H]2c3ccccc3C[C@@H]2N2CCCCC2)cc1)c1ccc(C(=O)NCCOCCOCCNS(=O)(=O)c2ccc(O[C@H]3c4ccccc4C[C@@H]3N3CCCCC3)cc2)cc1 [compound 100] | 8.10 | 8.30 | 57 | 1 | 68 |  |  |  |  |  |  |  |  |  |  | 
11 | CN(C)[C@H]1Cc2ccc(F)cc2[C@@H]1Oc1ccc(S(=O)(=O)NCCOCCOCCNC(=O)NCCCCNC(=O)NCCOCCOCCNS(=O)(=O)c2ccc(O[C@H]3c4cc(F)ccc4C[C@@H]3N(C)C)cc2)cc1 [compound 136] | <5.00 | 7.70 | 104 | 1 | 93 |  |  |  |  |  |  |  |  |  |  | 
12 | CN1Cc2c(Cl)cc(Cl)cc2[C@H](c2cccc(S(=O)(=O)NCCOCCOCCOCCNC(=O)CCC(N)(CCC(=O)NCCOCCOCCOCCNS(=O)(=O)c3cccc([C@@H]4CN(C)Cc5c(Cl)cc(Cl)cc54)c3)CCC(=O)NCCOCCOCCOCCNS(=O)(=O)c3cccc([C@@H]4CN(C)Cc5c(Cl)cc(Cl)cc54)c3)c2)C1 [compound 90] | 7.20 | 7.85 | 38 | 5 | 20 |  |  |  | 76 | 30 | 1 | 1 | 65 | 58 |  | 
13 | CN1Cc2c(Cl)cc(Cl)cc2[C@H](c2cccc(S(=O)(=O)NCCOCCOCCNC(=O)CCC(CCC(=O)NCCOCCOCCNS(=O)(=O)c3cccc([C@@H]4CN(C)Cc5c(Cl)cc(Cl)cc54)c3)(CCC(=O)NCCOCCOCCNS(=O)(=O)c3cccc([C@@H]4CN(C)Cc5c(Cl)cc(Cl)cc54)c3)NS(C)(=O)=O)c2)C1 [compound 122] | 6.20 | 6.80 |  |  |  |  |  |  |  | 30 |  | 2 |  | 87 |  | 
